For one data set, the target named is T1, Toll-like receptor 9 (Homo sapiens, UniProt Q9NR96).
T1 sequence (Q9NR96 whole entry): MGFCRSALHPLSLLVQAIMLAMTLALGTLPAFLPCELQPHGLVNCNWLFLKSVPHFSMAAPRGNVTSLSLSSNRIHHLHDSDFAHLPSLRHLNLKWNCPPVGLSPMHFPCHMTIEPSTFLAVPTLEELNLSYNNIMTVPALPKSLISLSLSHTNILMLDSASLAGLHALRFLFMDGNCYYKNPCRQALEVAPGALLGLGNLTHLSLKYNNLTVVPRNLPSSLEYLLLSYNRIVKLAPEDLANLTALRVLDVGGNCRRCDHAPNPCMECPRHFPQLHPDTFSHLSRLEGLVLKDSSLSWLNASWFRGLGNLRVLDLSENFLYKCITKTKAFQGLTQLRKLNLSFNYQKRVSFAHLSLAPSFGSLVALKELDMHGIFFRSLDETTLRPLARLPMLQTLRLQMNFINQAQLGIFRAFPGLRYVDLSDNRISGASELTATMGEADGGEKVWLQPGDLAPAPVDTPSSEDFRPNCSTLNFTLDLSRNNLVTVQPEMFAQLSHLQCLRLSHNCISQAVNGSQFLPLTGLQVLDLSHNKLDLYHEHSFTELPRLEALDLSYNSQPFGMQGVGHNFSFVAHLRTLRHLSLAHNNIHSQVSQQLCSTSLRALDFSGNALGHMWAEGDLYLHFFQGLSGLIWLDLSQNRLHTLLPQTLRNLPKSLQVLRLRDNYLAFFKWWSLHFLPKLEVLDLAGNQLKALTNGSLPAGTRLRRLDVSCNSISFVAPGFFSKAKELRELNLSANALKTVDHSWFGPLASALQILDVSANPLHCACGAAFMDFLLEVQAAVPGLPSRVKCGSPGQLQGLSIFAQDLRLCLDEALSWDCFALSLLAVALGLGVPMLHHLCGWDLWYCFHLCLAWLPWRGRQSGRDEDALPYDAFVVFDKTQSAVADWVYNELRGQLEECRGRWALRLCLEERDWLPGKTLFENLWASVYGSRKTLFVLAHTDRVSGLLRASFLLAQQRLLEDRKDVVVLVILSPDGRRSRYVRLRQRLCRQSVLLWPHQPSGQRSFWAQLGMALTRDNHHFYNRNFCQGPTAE
Description: Antagonist activity at human TLR9 expressed in […] cells assessed as inhibition of CpGB-induced NFkappaB activation measured after overnight incubation by SEAP-based spectrophotometry assay. It is filed as cell-based, HEK293.

The target of another data set is T2, Toll-like receptor 7 (Homo sapiens, UniProt Q9NYK1).
T2 sequence (Q9NYK1 whole entry): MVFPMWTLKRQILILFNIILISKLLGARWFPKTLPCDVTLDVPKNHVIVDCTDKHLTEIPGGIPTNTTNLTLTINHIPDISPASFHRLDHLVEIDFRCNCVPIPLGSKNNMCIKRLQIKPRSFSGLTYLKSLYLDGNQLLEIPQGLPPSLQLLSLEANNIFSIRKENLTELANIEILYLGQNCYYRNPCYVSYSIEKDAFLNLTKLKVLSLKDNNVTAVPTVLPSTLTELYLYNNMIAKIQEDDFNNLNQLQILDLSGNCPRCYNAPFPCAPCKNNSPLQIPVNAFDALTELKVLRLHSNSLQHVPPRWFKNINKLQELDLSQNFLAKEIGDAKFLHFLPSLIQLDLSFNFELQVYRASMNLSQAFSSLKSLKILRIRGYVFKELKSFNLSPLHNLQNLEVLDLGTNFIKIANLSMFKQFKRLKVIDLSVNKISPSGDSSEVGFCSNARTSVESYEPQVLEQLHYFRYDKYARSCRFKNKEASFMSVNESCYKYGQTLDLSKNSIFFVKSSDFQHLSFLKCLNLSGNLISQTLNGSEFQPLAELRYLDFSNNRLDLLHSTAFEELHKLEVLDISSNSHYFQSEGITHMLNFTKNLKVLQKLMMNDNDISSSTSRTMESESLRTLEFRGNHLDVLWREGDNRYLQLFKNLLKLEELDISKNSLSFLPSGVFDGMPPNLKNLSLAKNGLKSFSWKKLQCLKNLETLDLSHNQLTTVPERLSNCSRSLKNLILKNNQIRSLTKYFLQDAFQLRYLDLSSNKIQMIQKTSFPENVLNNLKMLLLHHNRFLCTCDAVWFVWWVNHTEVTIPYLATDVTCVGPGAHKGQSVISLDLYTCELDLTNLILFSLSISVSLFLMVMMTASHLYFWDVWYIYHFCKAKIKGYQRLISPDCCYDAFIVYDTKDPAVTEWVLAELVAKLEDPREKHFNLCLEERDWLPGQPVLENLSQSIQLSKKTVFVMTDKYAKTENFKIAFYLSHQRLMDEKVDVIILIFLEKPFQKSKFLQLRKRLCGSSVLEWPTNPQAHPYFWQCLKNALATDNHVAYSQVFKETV
Nature of the data set: Antagonist activity at human TLR7 expressed in HEK-blue-HTLR7 cells assessed as inhibition of CL264-induced NFkappaB activation measured after overnight incubation by SEAP-based spectrophotometry assay.

The nature of data set [1]: Apparent permeability across apical to basolateral side in human Caco2 cells at 10 uM measured after 10 mins by LC-MS/MS analysis. Conditions: Caco-2.
Data set [2] in a line: Apparent permeability across basolateral to apical side in human Caco2 cells at 10 uM measured after 10 mins by LC-MS/MS analysis. Conditions: Caco-2.
Data set [3] is described as follows: Efflux ratio of apparent permeability across apical to basolateral over basolateral to apical side in human Caco2 cells measured after 10 mins by LC-MS/MS analysis. Conditions: Caco-2.
The nature of data set [4]: Stability in mouse plasma measured after 2 hrs by LC-MS/MS analysis.
The nature of data set [5]: Metabolic stability in human liver microsomes assessed as compound remaining incubated for 60 mins by LC-MS/MS analysis.
Data set [6] in a line: Metabolic stability in human liver microsomes assessed as intrinsic clearance incubated for 60 mins by LC-MS/MS analysis.
Another data set has as its target T3, Toll-like receptor 8 (Homo sapiens, UniProt Q9NR97).
T3 sequence (Q9NR97 whole entry): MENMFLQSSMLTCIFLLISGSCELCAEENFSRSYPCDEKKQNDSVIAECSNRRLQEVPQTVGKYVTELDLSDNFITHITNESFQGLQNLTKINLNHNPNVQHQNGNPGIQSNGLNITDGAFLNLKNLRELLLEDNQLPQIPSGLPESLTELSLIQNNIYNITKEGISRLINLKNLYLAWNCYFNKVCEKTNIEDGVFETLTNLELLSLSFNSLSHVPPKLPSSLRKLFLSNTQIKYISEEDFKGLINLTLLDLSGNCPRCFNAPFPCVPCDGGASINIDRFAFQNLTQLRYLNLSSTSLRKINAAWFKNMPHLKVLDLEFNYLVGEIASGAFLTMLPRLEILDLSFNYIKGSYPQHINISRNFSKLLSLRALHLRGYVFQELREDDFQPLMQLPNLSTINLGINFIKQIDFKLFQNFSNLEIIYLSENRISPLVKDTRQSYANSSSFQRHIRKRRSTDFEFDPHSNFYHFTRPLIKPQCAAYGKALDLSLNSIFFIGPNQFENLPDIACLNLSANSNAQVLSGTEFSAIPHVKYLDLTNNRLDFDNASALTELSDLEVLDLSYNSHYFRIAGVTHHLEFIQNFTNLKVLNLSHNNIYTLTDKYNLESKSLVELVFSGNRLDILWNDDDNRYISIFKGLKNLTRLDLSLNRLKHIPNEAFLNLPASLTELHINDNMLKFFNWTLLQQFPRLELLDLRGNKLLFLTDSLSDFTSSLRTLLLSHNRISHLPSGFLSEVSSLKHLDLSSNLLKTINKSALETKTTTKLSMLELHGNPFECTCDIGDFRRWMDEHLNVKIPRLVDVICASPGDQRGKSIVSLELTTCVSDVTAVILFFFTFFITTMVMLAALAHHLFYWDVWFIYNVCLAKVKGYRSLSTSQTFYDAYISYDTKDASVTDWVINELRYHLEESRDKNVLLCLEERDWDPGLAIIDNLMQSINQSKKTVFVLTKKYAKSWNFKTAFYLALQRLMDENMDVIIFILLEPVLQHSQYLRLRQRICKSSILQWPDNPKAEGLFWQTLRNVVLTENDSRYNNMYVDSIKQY
Description: Antagonist activity at human TLR8 expressed in […] cells assessed as inhibition of CL075-induced NFkappaB activation measured after overnight incubation by SEAP-based spectrophotometry assay. It counts as cell-based, HEK293.

SMILES strings stand for the structures.

As for `Nc1nc(N2CCN(C3CCCC3)CC2)c2ncn(CCCN3CCCC3)c2n1`, the IC50 at Toll-like receptor 9 was found to be 0.12 µM; at Toll-like receptor 7, 4.88 µM.

Turning to `CCN1CCN(CCCn2cnc3c(N4CCN(CC)CC4)nc(NCc4ccc(OC)cc4)nc32)CC1`, the IC50 on Toll-like receptor 9 was found to be 0.2 µM; at Toll-like receptor 7, 5.22 µM.

As for `CCN1CCN(CCCn2cnc3c(N4CCN(C5CCCC5)CC4)nc(N)nc32)CC1`, the 50% inhibitory concentration (IC50) on Toll-like receptor 9 stood at 0.28 µM; on Toll-like receptor 7, 13.2 µM.

`CCN1CCN(CCCn2cnc3c(N4CCN(CC)CC4)nc(N4CCCC4)nc32)CC1`: the figures for the half-maximal inhibitory concentration (IC50) on Toll-like receptor 9 and on Toll-like receptor 7 were 0.5 µM and 8.49 µM, respectively.

Take `CCN1CCN(CCCn2cnc3c(N4CCN(C(=O)C5CCCC5)CC4)nc(N)nc32)CC1`: the IC50 on Toll-like receptor 9 and at Toll-like receptor 7 was more than 30 µM throughout.

As to `COc1ccc(CNc2nc(N3CCN(C4CCCC4)CC3)c3ncn(CCCN4CCCC4)c3n2)cc1`, the half-inhibitory concentration (IC50) at Toll-like receptor 7 is 11.6 µM.

Consider `CCN1CCN(CCCn2cnc3c(N4CCN(CC)CC4)ncnc32)CC1`, for which the values for the IC50 at Toll-like receptor 9 and at Toll-like receptor 7 were 1.19 µM and 4.78 µM, respectively. In [1], the Papp A→B at 10 min, 10 µM came out at 3.57 ×10⁻⁶ cm/s. For the same compound, the Papp B→A at 10 min, 10 µM in data set [2] is 9.28 ×10⁻⁶ cm/s. In [3], the efflux ratio at 10 min came to 2.6. Moreover, the amount remaining at 2 h in data set [4] was determined as 99%. Besides, the amount remaining at 1 h in data set [5] amounted to 75.8%. Also, the intrinsic clearance (microsomal CLint) at 1 h in [6] was found to be 7.81 µL/min/mg.

Consider `CCN1CCN(CCCn2cnc3c(N4CCN(CC)CC4)nc(N)nc32)CC1`, for which the values for the IC50 on Toll-like receptor 9 and at Toll-like receptor 7 were 0.26 µM and 16.2 µM, respectively.

Regarding `CCN1CCN(CCCn2cnc3c(N4CCN(CC)CC4)nc(NCc4ccccc4)nc32)CC1`, the half-inhibitory concentration (IC50) at Toll-like receptor 7 amounted to 7.59 µM.

With `CCN1CCN(c2nc(NCc3ccc(OC)cc3)nc3c2ncn3CCCN2CCCC2)CC1`, the IC50 at Toll-like receptor 8 is more than 30 µM.

`CCN1CCN(CCCn2cnc3c(N4CCN(C(=O)c5ccccc5)CC4)nc(NCc4ccc(F)cc4)nc32)CC1`: the half-maximal inhibitory concentration (IC50) at Toll-like receptor 9 and at Toll-like receptor 7 was more than 30 µM in each case.

On to `CCN1CCN(CCCn2cnc3c(N4CCN(C5CCCC5)CC4)nc(NC(=O)c4ccc(CN(C)C)cc4)nc32)CC1`, for which the IC50 on Toll-like receptor 9 is 0.06 µM; on Toll-like receptor 8, more than 30 µM.

For the compound `CCN1CCN(CCCn2cnc3c(N4CCN(C5CCCC5)CC4)nc(NCc4ccc(F)cc4)nc32)CC1`, the 50% inhibitory concentration (IC50) on Toll-like receptor 9 was 0.25 µM; on Toll-like receptor 7, more than 30 µM.

Turning to `CCN1CCN(CCCn2cnc3c(N4CCN(C(=O)C5CCCC5)CC4)nc(NCc4ccc(OC)cc4)nc32)CC1`, the IC50 at Toll-like receptor 9 and at Toll-like receptor 7 was more than 30 µM each time.

On to `CCN1CCN(CCCn2cnc3c(N4CCN(C(=O)c5ccccc5)CC4)nc(N4CCCC4)nc32)CC1`, for which the half-maximal inhibitory concentration (IC50) on Toll-like receptor 9 and at Toll-like receptor 7 was more than 30 µM each time.

As to `CCN1CCN(CCCn2cnc3c(N4CCN(C(=O)C5CCCC5)CC4)nc(NCc4ccc(F)cc4)nc32)CC1`, the concentration for half-maximal inhibition (IC50) on Toll-like receptor 9 and at Toll-like receptor 7 was more than 30 µM in each case.

`CCN1CCN(CCCn2cnc3c(N4CCN(C5CCCC5)CC4)nc(NCc4ccc(N(CC)CC)cc4)nc32)CC1`: the 50% inhibitory concentration (IC50) on Toll-like receptor 9 stood at 0.15 µM; on Toll-like receptor 7 it was 8.13 µM.

As to `CCN1CCN(CCCn2cnc3c(N4CCN(C(=O)c5ccccc5)CC4)nc(NCc4ccc(N(CC)CC)cc4)nc32)CC1`, the half-maximal inhibitory concentration (IC50) at Toll-like receptor 9 was determined as 3.4 µM; on Toll-like receptor 7 it was 8.4 µM.

Take `CCN1CCN(c2nc(NCc3ccc(F)cc3)nc3c2ncn3CCCN2CCCC2)CC1`: the results for the IC50 on Toll-like receptor 9 and on Toll-like receptor 8 were 0.04 µM and more than 30 µM, respectively.

Turning to `CCN1CCN(CCCn2cnc3c(N4CCN(CC)CC4)nc(NC(=O)c4ccccc4)nc32)CC1`, at Toll-like receptor 7, the IC50 came to 7.74 µM.

Take `CCN1CCN(CCCn2cnc3c(N4CCN(C(=O)c5ccccc5)CC4)nc(NCc4ccc(OC)cc4)nc32)CC1`: the IC50 at Toll-like receptor 9 and on Toll-like receptor 7 was more than 30 µM throughout.

Turning to `CCN1CCN(CCCn2cnc3c(N4CCN(CC)CC4)nc(NCc4ccc(F)cc4)nc32)CC1`, the IC50 on Toll-like receptor 7 is 10.1 µM.

As to `CCN1CCN(CCCn2cnc3c(N4CCN(C(=O)c5ccccc5)CC4)nc(N)nc32)CC1`, the IC50 on Toll-like receptor 9 and on Toll-like receptor 7 was more than 30 µM throughout.

On to `CCN1CCN(c2nc(N)nc3c2ncn3CCCN2CCCC2)CC1`, for which the IC50 on Toll-like receptor 9 was found to be 0.19 µM; at Toll-like receptor 7 it was 4.94 µM.

With `CCN1CCN(CCCn2cnc3c(N4CCN(C5CCCC5)CC4)nc(NCc4ccc(OC)cc4)nc32)CC1`, the IC50 on Toll-like receptor 7 was more than 30 µM.
